Experimental data from patent publication US8906925B2, “Pyrido[4,3-B]indoles containing rigid moieties” (Medivation Technologies, Inc., priority 2008, dated 2014).

How the values were obtained:
histamine receptor H1 = histamine receptor H1 (Homo sapiens, UniProt P35367); test: Histamine H1 radioligand binding ([3H]Pyrilamine); details: read-out: Histamine Binding (1 μM) H1, percent inhibition of specific binding, 1 μM
Outline: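 Values are percent inhibition of specific [3H]pyrilamine (1.2 nM) binding with compounds at ≤1 μM (1% DMSO vehicle); 180 min incubation at 25 °C, pH 7.4 Tris buffer, on CHO-expressed human H1 receptor; 1 μM pyrilamine defined nonspecific binding, bound ligand counted after filtration.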

[1] = target: human dopamine D2L receptor (Homo sapiens, UniProt P14416); test: Dopamine D2L radioligand binding ([3H]Spiperone); details: compound at 1 μM; […] [3H]Spiperone; read-out: Inhibition of ligand binding, Dopamine D2L (percent inhibition of specific binding)
Chain of human dopamine D2L receptor (P14416 whole entry): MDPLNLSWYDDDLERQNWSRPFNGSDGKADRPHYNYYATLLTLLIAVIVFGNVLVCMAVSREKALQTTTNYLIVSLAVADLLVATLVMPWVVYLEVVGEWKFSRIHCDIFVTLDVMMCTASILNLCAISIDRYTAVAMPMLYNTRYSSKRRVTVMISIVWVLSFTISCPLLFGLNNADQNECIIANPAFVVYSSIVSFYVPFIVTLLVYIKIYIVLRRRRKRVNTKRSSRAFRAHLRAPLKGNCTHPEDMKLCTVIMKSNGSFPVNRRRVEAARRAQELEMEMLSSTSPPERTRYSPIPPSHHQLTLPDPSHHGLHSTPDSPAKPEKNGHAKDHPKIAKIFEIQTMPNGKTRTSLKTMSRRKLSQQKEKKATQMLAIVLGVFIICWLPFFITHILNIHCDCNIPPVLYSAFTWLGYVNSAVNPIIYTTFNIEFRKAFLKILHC
From the text: Non-specific binding was estimated in the presence of […] Haloperidol. Receptor proteins were filtered and washed, the filters were then counted to determine [^3H]Spiperone specifically bound. […] Biochemical assay results are presented as the percent inhibition of specific binding in Table 9.

[2] = target: T1, human recombinant serotonin (5-Hydroxytryptamine) 5-HT2A receptor (Homo sapiens, UniProt P28223); test: Serotonin 5-HT2A radioligand binding ([3H]Ketanserin); details: read-out: Inhibition of ligand binding, Serotonin 5-HT2A (percent inhibition of specific binding), compound at 1 μM
T1 construct: expressed in transfected cells; host or cells: Chinese hamster ovary (CHO-K1) cells
T1 sequence (P28223 whole entry): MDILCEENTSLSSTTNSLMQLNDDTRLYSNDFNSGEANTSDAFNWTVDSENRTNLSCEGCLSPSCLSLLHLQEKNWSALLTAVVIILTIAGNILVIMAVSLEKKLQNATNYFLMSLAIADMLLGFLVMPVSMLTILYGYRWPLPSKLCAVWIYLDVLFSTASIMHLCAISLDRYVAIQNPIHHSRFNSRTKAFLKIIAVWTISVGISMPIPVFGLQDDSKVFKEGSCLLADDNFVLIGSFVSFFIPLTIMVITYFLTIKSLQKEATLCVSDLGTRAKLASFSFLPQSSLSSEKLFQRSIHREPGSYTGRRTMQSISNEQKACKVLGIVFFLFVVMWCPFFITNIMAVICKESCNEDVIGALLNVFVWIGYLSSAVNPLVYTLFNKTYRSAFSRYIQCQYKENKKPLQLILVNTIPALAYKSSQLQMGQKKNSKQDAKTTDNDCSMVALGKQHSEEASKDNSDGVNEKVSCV
Procedure: Compounds of the invention were incubated with 0.5 nM [^3H]Ketanserin for 60 min. at 25° C. Non-specific binding was estimated in the presence of 1 μM Mianserin. Receptor proteins were filtered and washed, the filters were then counted to determine [^3H]Ketanserin specifically bound.

Chain of histamine receptor H1 (P35367 whole entry): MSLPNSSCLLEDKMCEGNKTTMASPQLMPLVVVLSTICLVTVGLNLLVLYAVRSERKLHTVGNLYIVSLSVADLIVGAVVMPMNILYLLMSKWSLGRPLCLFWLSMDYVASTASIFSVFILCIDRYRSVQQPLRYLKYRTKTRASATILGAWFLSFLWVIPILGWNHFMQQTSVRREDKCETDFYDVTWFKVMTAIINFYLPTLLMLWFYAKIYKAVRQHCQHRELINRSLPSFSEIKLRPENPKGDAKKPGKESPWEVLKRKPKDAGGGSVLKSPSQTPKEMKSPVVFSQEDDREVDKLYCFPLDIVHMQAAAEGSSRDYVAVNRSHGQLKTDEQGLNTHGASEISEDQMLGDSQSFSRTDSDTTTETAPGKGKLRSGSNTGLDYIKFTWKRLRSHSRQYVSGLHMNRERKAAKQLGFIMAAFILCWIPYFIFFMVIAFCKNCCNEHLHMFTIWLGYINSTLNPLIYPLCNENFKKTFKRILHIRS

In the case of `CN1CCc2c(c3cccc(Cl)c3n2C[C@@](C)(O)c2ccncc2)C1` [Compound No. 469, (S)-1-(6-chloro-2-methyl-3,4-dihydro-1H-pyrido[4,3-b]indol-5(2H)-yl)-2-(pyridin-4-yl)propan-2-ol], the inhibition at 1 µM (histamine receptor H1) is reported as 14%, the inhibition at 1 µM [1] is reported as 12% and the inhibition at 1 µM [2] is reported as 87%.

With `CN1CCc2c(c3cccc(Cl)c3n2C[C@](C)(O)c2ccncc2)C1` [Compound No. 470, (R)-1-(6-chloro-2-methyl-3,4-dihydro-1H-pyrido[4,3-b]indol-5(2H)-yl)-2-(pyridin-4-yl)propan-2-ol] the inhibition at 1 µM (histamine receptor H1) was 17%, the inhibition at 1 µM [1] was 1% and the inhibition at 1 µM [2] was 89%.

In the case of `C/C(=C\c1ccccc1)n1c2c(c3cc(C)ccc31)CN(C)CC2` [compound 428, (E)-2,8-dimethyl-5-(1-phenylprop-1-en-2-yl)-2,3,4,5-tetrahydro-1H-pyrido[4,3-b]indole], the inhibition at 1 µM (histamine receptor H1) is reported as 97% and the inhibition at 1 µM [1] is reported as 57%.

In the case of `C/C(=C/c1ccccc1)n1c2c(c3cc(C)ccc31)CN(C)CC2` [compound 429, (Z)-2,8-dimethyl-5-(1-phenylprop-1-en-2-yl)-2,3,4,5-tetrahydro-1H-pyrido[4,3-b]indole], the inhibition at 1 µM (histamine receptor H1) is reported as 101% and the inhibition at 1 µM [1] is reported as 30%.

In the case of `COc1ccc(/C(F)=C/n2c3c(c4cc(C)ccc42)CN(C)CC3)cn1` [compound 430, (Z)-5-(2-fluoro-2-(6-methoxypyridin-3-yl)vinyl)-2,8-dimethyl-2,3,4,5-tetrahydro-1H-pyrido[4,3-b]indole], the inhibition at 1 µM (histamine receptor H1) is reported as 72% and the inhibition at 1 µM [1] is reported as 25%.

Compound `CNc1ccc2c(c1)c1c(n2/C=C(\C)c2ccc(F)cc2)CCN(C)C1` [compound 431, (E)-5-(2-(4-fluorophenyl)prop-1-enyl)-N,2-dimethyl-2,3,4,5-tetrahydro-1H-pyrido[4,3-b]indol-8-amine] has an inhibition at 1 µM (histamine receptor H1) of 33% and an inhibition at 1 µM [1] of 80%.

`CCCCNc1ccc2c(c1)c1c(n2/C=C(\C)c2ccc(F)cc2)CCN(C)C1` [compound 432, (E)-N-butyl-5-(2-(4-fluorophenyl)prop-1-enyl)-2-methyl-2,3,4,5-tetrahydro-1H-pyrido[4,3-b]indol-8-amine] gave an inhibition at 1 µM (histamine receptor H1) of 46% and an inhibition at 1 µM [1] of 79%.

Compound `CNc1ccc2c(c1)c1c(n2/C=C(\C)c2ccncc2)CCN(C)C1` [compound 433, (E)-N,2-dimethyl-5-(2-(pyridin-4-yl)prop-1-enyl)-2,3,4,5-tetrahydro-1H-pyrido[4,3-b]indol-8-amine] has an inhibition at 1 µM (histamine receptor H1) of 13% and an inhibition at 1 µM [1] of 61%.

In the case of `CNC(=O)c1ccc(/C(C)=C/n2c3c(c4cc(C)ccc42)CN(C)CC3)cc1` [compound 435], the inhibition at 1 µM (histamine receptor H1) is reported as 11% and the inhibition at 1 µM [1] is reported as 71%.

`C/C(=C\n1c2c(c3cc(C)ccc31)CN(C)CC2)c1ccc(C(=O)N(C)C)cc1` [compound 436] gave an inhibition at 1 µM (histamine receptor H1) of 12% and an inhibition at 1 µM [1] of 69%.

`C/C(=C\n1c2c(c3cc(N4CCN(C)CC4)ccc31)CN(C)CC2)c1ccncc1` [compound 437, (E)-2-methyl-8-(4-methylpiperazin-1-yl)-5-(2-(pyridin-4-yl)prop-1-enyl)-2,3,4,5-tetrahydro-1H-pyrido[4,3-b]indole] was tested, and the inhibition at 1 µM (histamine receptor H1) was 44% and the inhibition at 1 µM [1] was 15%.

`Cc1ccc2c(c1)c1c(n2/C=C(\F)c2cscn2)CCN(C)C1` [compound 438, (Z)-4-(2-(2,8-dimethyl-3,4-dihydro-1H-pyrido[4,3-b]indol-5(2H)-yl)-1-fluorovinyl)thiazole] showed an inhibition at 1 µM (histamine receptor H1) of 92% and an inhibition at 1 µM [1] of 17%.

`CC(=O)N(C)c1ccc2c(c1)c1c(n2/C=C(\C)c2ccncc2)CCN(C)C1` [compound 439, (E)-N-methyl-N-(2-methyl-5-(2-(pyridin-4-yl)prop-1-enyl)-2,3,4,5-tetrahydro-1H-pyrido[4,3-b]indol-8-yl)acetamide] gave an inhibition at 1 µM (histamine receptor H1) of 9% and an inhibition at 1 µM [1] of 16%.

For `COCCNc1ccc2c(c1)c1c(n2/C=C(\C)c2ccncc2)CCN(C)C1` [compound 440], the inhibition at 1 µM (histamine receptor H1) was 4% and the inhibition at 1 µM [1] was 16%.

With `COc1ccc(/C(C)=C/n2c3c(c4cc(C)ccc42)CN(C)CC3)cn1` [compound 441, (E)-5-(2-(6-methoxypyridin-3-yl)prop-1-enyl)-2,8-dimethyl-2,3,4,5-tetrahydro-1H-pyrido[4,3-b]indole] the inhibition at 1 µM (histamine receptor H1) was 91% and the inhibition at 1 µM [1] was 64%.

`C/C(=C\n1c2c(c3cc(N(C)C)ccc31)CN(C)CC2)c1ccc(F)cc1` [compound 442, (E)-5-(2-(4-fluorophenyl)prop-1-enyl)-N,N,2-trimethyl-2,3,4,5-tetrahydro-1H-pyrido[4,3-b]indol-8-amine] gave an inhibition at 1 µM (histamine receptor H1) of 29% and an inhibition at 1 µM [1] of 77%.

`CC(=O)N(C)c1ccc2c(c1)c1c(n2/C=C(\C)c2ccc(F)cc2)CCN(C)C1` [compound 443, (E)-N-(5-(2-(4-fluorophenyl)prop-1-enyl)-2-methyl-2,3,4,5-tetrahydro-1H-pyrido[4,3-b]indol-8-yl)-N-methylacetamide] showed an inhibition at 1 µM (histamine receptor H1) of -5% and an inhibition at 1 µM [1] of 92%.

Compound `CCCCNc1ccc2c(c1)c1c(n2/C=C(\C)c2ccncc2)CCN(C)C1` [compound 444, (E)-N-butyl-2-methyl-5-(2-(pyridin-4-yl)prop-1-enyl)-2,3,4,5-tetrahydro-1H-pyrido[4,3-b]indol-8-amine] has an inhibition at 1 µM (histamine receptor H1) of -13% and an inhibition at 1 µM [1] of 36%.

In the case of `C/C(=C\n1c2c(c3cc(N4CCCCC4)ccc31)CN(C)CC2)c1ccncc1` [compound 445, (E)-2-methyl-8-(piperidin-1-yl)-5-(2-(pyridin-4-yl)prop-1-enyl)-2,3,4,5-tetrahydro-1H-pyrido[4,3-b]indole], the inhibition at 1 µM (histamine receptor H1) is reported as 1% and the inhibition at 1 µM [1] is reported as 20%.

In the case of `C/C(=C\n1c2c(c3cc(N4CCCC4)ccc31)CN(C)CC2)c1ccncc1` [compound 446, (E)-2-methyl-5-(2-(pyridin-4-yl)prop-1-enyl)-8-(pyrrolidin-1-yl)-2,3,4,5-tetrahydro-1H-pyrido[4,3-b]indole], the inhibition at 1 µM (histamine receptor H1) is reported as -4% and the inhibition at 1 µM [1] is reported as 42%.

Work on `C/C(=C\n1c2c(c3cc(NC4CC4)ccc31)CN(C)CC2)c1ccncc1` [compound 447, (E)-N-cyclopropyl-2-methyl-5-(2-(pyridin-4-yl)prop-1-enyl)-2,3,4,5-tetrahydro-1H-pyrido[4,3-b]indol-8-amine] yielded an inhibition at 1 µM (histamine receptor H1) of -1% and an inhibition at 1 µM [1] of 59%.

For `C/C(=C\n1c2c(c3cc(NC4CCC4)ccc31)CN(C)CC2)c1ccncc1` [compound 448, (E)-N-cyclobutyl-2-methyl-5-(2-(pyridin-4-yl)prop-1-enyl)-2,3,4,5-tetrahydro-1H-pyrido[4,3-b]indol-8-amine], the inhibition at 1 µM (histamine receptor H1) was -10% and the inhibition at 1 µM [1] was 79%.

`C/C(=C\n1c2c(c3cc(NCCO)ccc31)CN(C)CC2)c1ccncc1` [compound 449, (E)-2-(2-methyl-5-(2-(pyridin-4-yl)prop-1-enyl)-2,3,4,5-tetrahydro-1H-pyrido[4,3-b]indol-8-ylamino)ethanol] was tested, and the inhibition at 1 µM (histamine receptor H1) was -7% and the inhibition at 1 µM [1] was 59%.

`C/C(=C\n1c2c(c3cc(N(C)C)ccc31)CN(C)CC2)c1ccncc1` [compound 450, (E)-N,N,2-trimethyl-5-(2-(pyridin-4-yl)prop-1-enyl)-2,3,4,5-tetrahydro-1H-pyrido[4,3-b]indol-8-amine] showed an inhibition at 1 µM (histamine receptor H1) of 43% and an inhibition at 1 µM [1] of 35%.

For `Cc1ccc2c(c1)c1c(n2/C=C(\F)c2cccs2)CCN(C)C1` [compound 451], the inhibition at 1 µM (histamine receptor H1) was 99% and the inhibition at 1 µM [1] was 70%.

In the case of `C/C(=C\n1c2c(c3cc(C)ccc31)CN(C)CC2)c1cc(F)c(O)c(F)c1` [compound 452, (E)-4-(1-(2,8-dimethyl-3,4-dihydro-1H-pyrido[4,3-b]indol-5(2H)-yl)prop-1-en-2-yl)-2,6-difluorophenol], the inhibition at 1 µM (histamine receptor H1) is reported as 18% and the inhibition at 1 µM [1] is reported as 71%.

With `Cc1ccc2c(c1)c1c(n2/C=C(/c2ccccc2)c2ccncc2)CCN(C)C1` [compound 453, (Z)-2,8-dimethyl-5-(2-phenyl-2-(pyridin-4-yl)vinyl)-2,3,4,5-tetrahydro-1H-pyrido[4,3-b]indole] the inhibition at 1 µM (histamine receptor H1) was 26% and the inhibition at 1 µM [1] was 51%.

With `COc1ccc(/C(C)=C/n2c3c(c4cc(Cl)ccc42)CN(C)CC3)cn1` [compound 454, (E)-8-chloro-5-(2-(6-methoxypyridin-3-yl)prop-1-enyl)-2-methyl-2,3,4,5-tetrahydro-1H-pyrido[4,3-b]indole] the inhibition at 1 µM (histamine receptor H1) was 21% and the inhibition at 1 µM [1] was 80%.

Compound `Cc1ccc2c(c1)c1c(n2/C=C(\c2ccccc2)c2ccncc2)CCN(C)C1` [compound 455, (E)-2,8-dimethyl-5-(2-phenyl-2-(pyridin-4-yl)vinyl)-2,3,4,5-tetrahydro-1H-pyrido[4,3-b]indole] has an inhibition at 1 µM (histamine receptor H1) of 13% and an inhibition at 1 µM [1] of 56%.

With `COc1c(F)cc(/C(C)=C/n2c3c(c4cc(C)ccc42)CN(C)CC3)cc1F` [compound 456, (E)-5-(2-(3,5-difluoro-4-methoxyphenyl)prop-1-enyl)-2,8-dimethyl-2,3,4,5-tetrahydro-1H-pyrido[4,3-b]indole] the inhibition at 1 µM (histamine receptor H1) was 17% and the inhibition at 1 µM [1] was 80%.

`C/C(=C\n1c2c(c3cc(C)ccc31)CN(C)CC2)c1cccc(C(=O)N(C)C)c1` [compound 457, (E)-3-(1-(2,8-dimethyl-3,4-dihydro-1H-pyrido[4,3-b]indol-5(2H)-yl)prop-1-en-2-yl)-N,N-dimethylbenzamide] was tested, and the inhibition at 1 µM (histamine receptor H1) was 37% and the inhibition at 1 µM [1] was 53%.
